Test system: PC12 neuronal cells
Test: Neurite outgrowth in NGF-differentiated PC12 neuronal cell cultures (Calcein-AM/Hoechst imaging)
Assay type: cell-based
Protocol: In order to assess the effects of nutritional components on axonal outgrowth and dendritic arborization underlying functional brain connectivity, the effects of nutrient supplementation on neurite outgrowth parameters in PC12 pheochromocytoma cells was investigated. PC12 neuronal cell model is one of the most widely used cell models for the study of neuronal differentiation. PC12 pheochromocytoma cells were grown in DMEM (Gibco), supplemented with 10% fetal bovine serum (FBS), penicillin (100 units/ml), and streptomycin (100 μg/ml) (Gibco), under a humidified atmosphere with 95% air and 5% CO2 at 37° C. Cells were seeded onto a collagen (0.01 mg/ml) coated 96-well plates at a density of 5000 cells/well and after 24 hours supplemented with medium containing 20 ng/ml nerve growth factor (NGF) with or without the components as defined in the present and in the following examples. Cell cultures were incubated at 37° C. in 5% CO2 and medium was replaced every 2-3 days. DHA and EPA were resuspended in absolute ethanol and diluted 5 times in fetal bovine serum. Other compounds were dissolved in DMEM. All compounds were purchased from Sigma (Zwijndrecht, The Netherlands). Supplementation of cells was performed in 6-fold in 96 wells plates. Neurite outgrowth of these conditions was compared to non-supplemented cells. After 48 hours of nutrient supplementation, cell bodies and neurites were stained using Calcein-AM stain (0.2 μg/ml) (Invitrogen, batch #C3100MP) and the nuclei were counterstained using Hoechst stain (1.2 μg/ml) (Thermo Scientific, batch #62249) in 100 μl culture medium per well and incubated for 20 min at 37° C. Subsequently, FITC and DAPI images (9 images per well, 6 wells per condition) were taken using an ImageXpress Micro Confocal high content imaging system (Molecular Devices). Neurite length was quantified using the neurite outgrowth module in MetaXpress. Image analysis was carried out using the neurite outgrowth analysis module in MetaXpress (Molecular Devices). The measurements taken from each well included the number of nuclei and the mean neurite outgrowth (μm) per cell. The data was normalized to and expressed as a relative percentage of the plate-averaged value of the vehicle-treated control wells.

[1] = FIG. 8 plate: BA 200 μM, B2 0.25 μM, DHA 2.5 μM, D3 0.25 μM, PC 20 μM, alone or combined
[2] = FIG. 9 first plate: B2 0.25 μM, D3 0.75 μM, PC 15 μM, BA 40 μM, alone or together with reference diet
[3] = FIG. 4 plate: total 20 μM choline from chol-Cl, PC or both
[4] = FIG. 1 plate: DHA 6.7 μM, EPA 10 μM, vitamin B2 1.25 μM, vitamin D3 0.25 μM, alone or combined, 48 hours, 20 ng/ml NGF

| Molecule | neurite outgrowth compared to control (FIG. 7 plate: BA 200 μM) | neurite outgrowth compared to control (FIG. 7 plate: BA 12.5, 25, 50, 100 and 200 μM) | observed mean neurite outgrowth, percentage relative to control (100%) [1] | observed mean neurite outgrowth, percentage relative to control (100%) [2] | neurite outgrowth compared to control [3] | observed mean neurite outgrowth, percentage relative to control (100%) [4] | observed mean neurite outgrowth, percentage relative to control (100%) (FIG. 5 plate: choline 20 μM (chol-Cl and/or PC), DHA 3.3 μM, B2 0.5 μM, D3 0.25 μM) |
| --- | --- | --- | --- | --- | --- | --- | --- |
| CCCC(=O)O [BA, butyric acid] | strongest effect on neurite outgrowth | increased neurite outgrowth in a dose-dependent manner | increased neurite outgrowth more than supplementation of vitamin B2 and D3 alone | increased neurite outgrowth | – | – | – |
| C[N+](C)(C)CCO.[Cl-] [chol-Cl, choline-chloride] | – | – | – | – | enhance neurite outgrowth | – | – |
| Cc1cc2nc3c(=O)[nH]c(=O)nc-3n(C[C@H](O)[C@H](O)[C@H](O)CO)c2cc1C [vitamin B2, riboflavin] | – | – | – | increased neurite outgrowth | – | increased neurite outgrowth | – |
| C=C1CC[C@H](O)C/C1=C/C=C1\CCC[C@]2(C)[C@@H]([C@H](C)CCCC(C)C)CC[C@@H]12 [vitamin D3, cholecalciferol] | – | – | – | increased neurite outgrowth | – | increased neurite outgrowth | – |
| phosphatidylcholine [PC] | – | – | increased neurite outgrowth more than supplementation of vitamin B2 and D3 alone | increased neurite outgrowth | increases neurite outgrowth more than supplementation with 100 mole % chol-Cl | – | increased neurite outgrowth more than supplementation with 100 mole % chol-Cl |

— patent US20260151370A1, “Nutritional composition for neurodegeneration and neurotrauma” (N.V. Nutricia, priority 2023, published 2026)
